# Laboratory results taken from ChEMBL document CHEMBL3882724 (2013).
# Key:
# [1] = target: T1, Steroid 17-alpha-hydroxylase/17,20 lyase (Homo sapiens, UniProt P05093); assay: Inhibition of CYP17 in human testicular microsomes using 17alpha-hydroxypregnenolone as substrate assessed as decrease in DHEA levels after 90 mins by ELISA; design: species or system Testis
# T1 sequence (P05093 whole entry): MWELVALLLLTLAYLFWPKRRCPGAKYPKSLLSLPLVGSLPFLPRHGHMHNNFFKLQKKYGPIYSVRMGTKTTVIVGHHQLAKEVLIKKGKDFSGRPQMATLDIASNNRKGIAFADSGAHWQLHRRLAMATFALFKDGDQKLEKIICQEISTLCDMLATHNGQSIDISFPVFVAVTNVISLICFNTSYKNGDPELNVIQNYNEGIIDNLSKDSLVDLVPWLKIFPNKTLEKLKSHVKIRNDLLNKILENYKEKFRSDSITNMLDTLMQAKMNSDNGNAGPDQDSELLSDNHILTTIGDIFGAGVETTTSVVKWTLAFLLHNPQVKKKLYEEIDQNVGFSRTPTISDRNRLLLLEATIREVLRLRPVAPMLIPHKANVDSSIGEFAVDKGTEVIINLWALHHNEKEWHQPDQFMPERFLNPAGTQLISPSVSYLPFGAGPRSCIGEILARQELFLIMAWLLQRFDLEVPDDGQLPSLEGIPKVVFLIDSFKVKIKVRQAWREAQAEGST
# [2] = target: T1, Steroid 17-alpha-hydroxylase/17,20 lyase; assay: Inhibition of CYP17 in human testicular microsomes using 17alpha-hydroxypregnenolone as substrate assessed as decrease in DHEA levels at 10 nM after 90 mins by ELISA relative to control; design: species or system Testis; settings: 1.5 h
# [3] = Half life in human liver microsomes at 1 uM by LC-MS/MS analysis
# CYP11B = target: T2, CYP11B (Rattus norvegicus, UniProt P15393+P30099); assay: Inhibition of Sprague-Dawley rat adrenal mitochondrial CYP11B assessed as decrease in conversion of 11-deoxycortisol to cortisol at 100 nM incubated for 60 mins by ELISA relative to control; format: protein assay; settings: adrenal mitochondria, probe 11-deoxycortisol
# T2 sequence (P30099 whole entry): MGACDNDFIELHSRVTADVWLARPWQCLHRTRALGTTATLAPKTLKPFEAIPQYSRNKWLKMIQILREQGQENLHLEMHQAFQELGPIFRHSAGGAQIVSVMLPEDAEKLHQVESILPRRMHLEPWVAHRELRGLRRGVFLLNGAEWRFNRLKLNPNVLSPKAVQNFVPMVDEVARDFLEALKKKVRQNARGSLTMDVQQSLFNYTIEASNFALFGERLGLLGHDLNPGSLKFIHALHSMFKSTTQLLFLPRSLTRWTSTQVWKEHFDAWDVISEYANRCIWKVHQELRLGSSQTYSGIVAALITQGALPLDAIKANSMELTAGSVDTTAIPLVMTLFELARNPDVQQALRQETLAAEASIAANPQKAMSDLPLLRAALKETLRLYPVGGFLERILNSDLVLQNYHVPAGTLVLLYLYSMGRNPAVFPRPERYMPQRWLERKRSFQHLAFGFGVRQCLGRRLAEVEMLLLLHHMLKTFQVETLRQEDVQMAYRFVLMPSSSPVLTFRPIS
# T2 sequence (P15393 whole entry): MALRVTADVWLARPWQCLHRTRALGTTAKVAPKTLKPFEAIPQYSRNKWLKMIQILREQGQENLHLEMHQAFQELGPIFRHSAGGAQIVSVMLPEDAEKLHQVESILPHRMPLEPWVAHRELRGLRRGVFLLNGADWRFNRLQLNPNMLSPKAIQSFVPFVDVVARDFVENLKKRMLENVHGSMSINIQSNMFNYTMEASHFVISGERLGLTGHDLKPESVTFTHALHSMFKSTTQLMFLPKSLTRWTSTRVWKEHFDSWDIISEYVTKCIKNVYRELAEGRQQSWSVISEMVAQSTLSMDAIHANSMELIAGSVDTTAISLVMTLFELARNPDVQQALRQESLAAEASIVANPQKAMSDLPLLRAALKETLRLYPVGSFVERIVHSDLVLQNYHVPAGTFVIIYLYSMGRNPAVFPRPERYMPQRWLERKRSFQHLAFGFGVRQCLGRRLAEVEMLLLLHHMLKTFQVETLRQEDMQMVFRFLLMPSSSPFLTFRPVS
# [4] = target: T3, CYP21 (steroid 21-hydroxylase) (Homo sapiens, UniProt P08686); assay: Inhibition of human CYP21 transfected in HEK293 cells assessed as decrease in conversion of progesterone to 11-deoxycorticosterone preincubated for 5 hrs followed by progesterone addition measured after 20 hrs by ELISA; format: cell-based; design: concentration or dose not given beside the values; settings: HEK293 cells transfected with human CYP21, probe progesterone
# T3 sequence (P08686 whole entry): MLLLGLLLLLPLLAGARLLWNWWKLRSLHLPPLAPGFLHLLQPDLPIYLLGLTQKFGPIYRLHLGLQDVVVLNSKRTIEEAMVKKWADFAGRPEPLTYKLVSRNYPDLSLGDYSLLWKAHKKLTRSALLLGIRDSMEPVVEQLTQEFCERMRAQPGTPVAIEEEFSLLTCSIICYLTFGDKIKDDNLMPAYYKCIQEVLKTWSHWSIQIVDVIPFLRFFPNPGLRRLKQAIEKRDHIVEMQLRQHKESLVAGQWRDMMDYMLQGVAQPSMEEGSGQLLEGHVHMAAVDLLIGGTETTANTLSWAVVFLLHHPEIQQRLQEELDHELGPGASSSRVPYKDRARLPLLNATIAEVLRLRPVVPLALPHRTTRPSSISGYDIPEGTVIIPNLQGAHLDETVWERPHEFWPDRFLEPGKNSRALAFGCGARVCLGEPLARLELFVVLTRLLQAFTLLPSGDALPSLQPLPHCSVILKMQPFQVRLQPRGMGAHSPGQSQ
# [5] = target: T1, Steroid 17-alpha-hydroxylase/17,20 lyase; assay: Inhibition of CYP17 in human H295R cells assessed as decrease in testosterone levels after 24 hrs by ELISA; format: cell-based
# [6] = target: T3, CYP21 (steroid 21-hydroxylase); assay: Inhibition of human CYP21 transfected in HEK293 cells assessed as decrease in conversion of progesterone to 11-deoxycorticosterone at 100 nM preincubated for 5 hrs followed by progesterone addition measured after 20 hrs by ELISA relative to control; format: cell-based; settings: HEK293 cells transfected with human CYP21, probe progesterone
# [7] = Half life in rat liver microsomes at 1 uM by LC-MS/MS analysis
# [8] = target: T1, Steroid 17-alpha-hydroxylase/17,20 lyase; assay: Inhibition of CYP17 in human testicular microsomes using 17alpha-hydroxypregnenolone as substrate assessed as decrease in DHEA levels at 1 nM after 90 mins by ELISA relative to control; design: species or system Testis
smiles,measurement,setting,value
CN1C(=O)CCC[C@@]2(C)C1=CC[C@@H]1[C@@H]2CC[C@]2(C)C(c3cccnc3)=CC[C@@H]12,IC50,[1],≤ 11 nM
same,inhibition at 0.01 µM,[2],≥ 80%
same,half-life at 1 µM,[3],1 to 50 min
same,"inhibition at 1 h, 0.1 µM",CYP11B,≥ 50%
CN1C(=O)C[C@@]2(C)C1=CC[C@@H]1[C@@H]2CC[C@]2(C)C(c3cccnc3)=CC[C@@H]12,IC50,[1],≤ 11 nM
same,"inhibition at 1 h, 0.1 µM",CYP11B,≥ 50%
same,inhibition at 20 h,[4],≥ 50%
COc1cncc(C2=CC[C@H]3[C@@H]4CC=C5N(C)C(=O)C[C@]5(C)[C@H]4CC[C@]23C)c1,IC50,[1],≤ 11 nM
same,half-life at 1 µM,[3],1 to 50 min
same,"inhibition at 1 h, 0.1 µM",CYP11B,< 32%
same,inhibition at 20 h,[4],≥ 50%
CC(=O)N[C@@H]1CC[C@@]2(C)C(=CC[C@@H]3[C@@H]2CC[C@]2(C)C(n4ccnc4)=CC[C@@H]32)C1,IC50,[1],≤ 11 nM
same,IC50,[5],≤ 15 nM
same,half-life at 1 µM,[3],≥ 50 min
same,"inhibition at 1 h, 0.1 µM",CYP11B,≥ 50%
same,inhibition at 20 h,[4],≥ 50%
CC1C[C@H]2C3=CC=C(c4cncc(N)c4)[C@@]3(C)CC[C@@H]2[C@@]2(C)CCC(=O)C=C12 (stereo partly specified),IC50,[1],≤ 11 nM
same,"inhibition at 20 h, 0.1 µM",[6],< 30%
CCC(=O)N1CCC[C@@]2(C)C(CC[C@@H]3[C@@H]2CC[C@]2(C)C(c4cccnc4)=CC[C@@H]32)C1 (stereo partly specified),IC50,[1],≤ 11 nM
same,"inhibition at 1 h, 0.1 µM",CYP11B,≥ 50%
same,inhibition at 20 h,[4],10 to 50%
COc1cncc(C2=CC=C3[C@@H]4CCC5=CC(=O)NCC[C@]5(C)[C@H]4CC[C@]23C)c1,IC50,[1],≤ 11 nM
same,inhibition at 0.01 µM,[2],50 to 80%
same,"inhibition at 20 h, 0.1 µM",[6],≥ 30%
CCc1cncc(C2=CC[C@H]3[C@@H]4CCC5=CC(=O)N(C)CC[C@]5(C)[C@H]4CC[C@]23C)c1,inhibition at 0.01 µM,[2],50 to 80%
same,"inhibition at 20 h, 0.1 µM",[6],≥ 30%
COc1cncc(C2=CC[C@H]3[C@@H]4CCC5=CC(=O)N(C)CC[C@]5(C)[C@H]4CC[C@]23C)c1,IC50,[1],≤ 11 nM
same,inhibition at 0.01 µM,[2],50 to 80%
same,half-life at 1 µM,[7],1 to 10 min
same,half-life at 1 µM,[3],1 to 10 min
same,"inhibition at 1 h, 0.1 µM",CYP11B,< 32%
CC(=O)O[C@H]1CC[C@@]2(C)C(=CC[C@H]3C4=CC=C(c5cccnc5)[C@@]4(C)CC[C@@H]32)C1,inhibition at 0.01 µM,[2],1 to 50%
same,"inhibition at 1 h, 0.1 µM",CYP11B,≥ 50%
COc1cncc(C2=CC[C@H]3[C@@H]4CC=C5N(C)C(=O)CCC[C@]5(C)[C@H]4CC[C@]23C)c1,inhibition at 0.01 µM,[2],≥ 80%
same,half-life at 1 µM,[3],1 to 50 min
same,"inhibition at 1 h, 0.1 µM",CYP11B,≥ 50%
COc1cncc(C2CC[C@H]3[C@@H]4CCC5=CC(=O)NCC[C@]5(C)[C@H]4CC[C@]23C)c1 (stereo partly specified),IC50,[1],≤ 11 nM
same,inhibition at 0.01 µM,[2],≥ 80%
same,half-life at 1 µM,[7],10 to 60 min
same,half-life at 1 µM,[3],10 to 60 min
same,"inhibition at 1 h, 0.1 µM",CYP11B,< 32%
Cc1cncc(C2=CC[C@H]3[C@@H]4CC=C5N(C)C(=O)CCC[C@]5(C)[C@H]4CC[C@]23C)c1,inhibition at 0.01 µM,[2],50 to 80%
same,"inhibition at 1 h, 0.1 µM",CYP11B,≥ 50%
COC(=O)N1CCC[C@@]2(C)[C@@H](CC[C@@H]3[C@@H]2CC[C@]2(C)C(n4ccnc4)=CC[C@@H]32)C1,"inhibition at 1 h, 0.1 µM",CYP11B,≥ 50%
same,IC50,[8],> 100 nM
same,inhibition at 20 h,[4],10 to 50%
